Legend:
[1] = Absorption and fluorescence spectra of probe and HMRG; format: physicochemical
Text: The absorption spectra and fluorescence spectra of compound 1 (GP-HRMG) having a glycine-proline dipeptide site synthesized in Example 1 and hydroxymethyl rhodamine green (HRMG) not having a dipeptide site were each measured.

DPP-IV = DPP-IV (Homo sapiens, UniProt P27487); experiment: DPP-IV assay by fluorescent probe (absorption/fluorescence change, HPLC); format: biochemical
Description: Next, DPP-IV was caused to act on compound 1, and the changes in the absorption spectrum and fluorescence spectrum were measured. The results are shown in FIG. 1 (the concentration of compound 1 was 3.5 μM).
Similarly, DPP-IV was caused to act on compound 1, and analysis was conducted by HPLC chromatography.
In addition to compound 1, fluorescence assays were conducted on compounds 2-6 synthesized in the same way in Example 1. For the solution conditions, a solution comprising 18 μL of solution comprising a fluorescent probe concentration of 1.1 μM and 20 mM Tris HCl buffer (pH 7.1), and 2 μL of solution comprising DPP-IV and 20 mM Tris HCl buffer was used. The results obtained by adding DPP-IV to each solution containing a fluorescent probe and measuring the increase in the fluorescence intensity are shown in FIGS. 3 and 4 (excitation wavelength 501 nm, fluorescence wavelength 524 nm). FIG. 3 is a graph snowing the fluorescence intensity increase rate six minutes after DPP-IV addition; FIG. 4 is a graph plotting the time dependence of the fluorescence intensity.

[2] = system: human esophageal squamous cell carcinoma cells (KYSE30, KYSE270, KYSE140, KYSE520, KYSE150, KYSE 1170); experiment: Live cell imaging in cultured esophageal cancer cells; format: cell-based; details: FIG. 5
Description: Imaging was conducted over time after adding GP-HMRG (compound 1) to six types of human esophageal squamous cell carcinoma cells.
As human esophageal squamous cell carcinoma cells, two highly differentiated types (KYSE30, KYSE270), two moderately differentiated types (KYSE140, KYSE520), and two lowly differentiated types (KYSE150, KYSE 1170) were cultured for two days at 37° C., 5% CO2 using a μ-Slide 8 well.

[3] = system: human esophageal cancer surgical specimens and ESD specimens; experiment: Imaging of human esophageal surgical specimens and ESD specimens; details: surgical specimen; probe 50 μM with DPP-IV inhibitor, adhered five minutes; FIG. 10
Description: Esophageal specimens from patients who underwent surgery and endoscopic submucosal dissection (ESD) for esophageal cancer were brought immediately after removal in each treatment (meaning surgical specimens and ESD specimens, respectively) to an imaging room, and imaging was conducted over time after spraying the specimens directly with various fluorescent probes (compounds 1-6). For surgical specimens, 10 μL of a DMSO solution (10 mM) of the various fluorescent probes was dissolved in 2 mL of RPMI 1640 (phenol red-free) (final probe concentration 50 μM), and imaging was conducted using a Maestro In Vivo Imaging System Ex after spraying the fluorescent probe on the specimen using a spray tube for an endoscope. For ESD specimens, 3 μL of a DMSO solution (10 mM) of the various fluorescent probes was dissolved in 600 μL of RPMI 1640 (phenol red-free) (final probe concentration 50 μM), and imaging was conducted using a Maestro In Vivo Imaging System Ex after adding the fluorescent probe dropwise to the specimen.
Specifically, gauze impregnated with 5 μL of a DMSO solution (10 mM) of EP-HMRG (compound 2) dissolved in 1 mL of RPMI 1640 (phenol red-free) (final probe concentration 50 μM) and gauze impregnated with 5 μL of a DMSO solution (10 mM) of EP-HMRG (compound 2) and 5 μL of a DPP-IV inhibitor (10 mM) dissolved in 1 mL of RPMI 1640 (phenol red-free) were used. […]

Chain of DPP-IV (P27487 whole entry, species assumed): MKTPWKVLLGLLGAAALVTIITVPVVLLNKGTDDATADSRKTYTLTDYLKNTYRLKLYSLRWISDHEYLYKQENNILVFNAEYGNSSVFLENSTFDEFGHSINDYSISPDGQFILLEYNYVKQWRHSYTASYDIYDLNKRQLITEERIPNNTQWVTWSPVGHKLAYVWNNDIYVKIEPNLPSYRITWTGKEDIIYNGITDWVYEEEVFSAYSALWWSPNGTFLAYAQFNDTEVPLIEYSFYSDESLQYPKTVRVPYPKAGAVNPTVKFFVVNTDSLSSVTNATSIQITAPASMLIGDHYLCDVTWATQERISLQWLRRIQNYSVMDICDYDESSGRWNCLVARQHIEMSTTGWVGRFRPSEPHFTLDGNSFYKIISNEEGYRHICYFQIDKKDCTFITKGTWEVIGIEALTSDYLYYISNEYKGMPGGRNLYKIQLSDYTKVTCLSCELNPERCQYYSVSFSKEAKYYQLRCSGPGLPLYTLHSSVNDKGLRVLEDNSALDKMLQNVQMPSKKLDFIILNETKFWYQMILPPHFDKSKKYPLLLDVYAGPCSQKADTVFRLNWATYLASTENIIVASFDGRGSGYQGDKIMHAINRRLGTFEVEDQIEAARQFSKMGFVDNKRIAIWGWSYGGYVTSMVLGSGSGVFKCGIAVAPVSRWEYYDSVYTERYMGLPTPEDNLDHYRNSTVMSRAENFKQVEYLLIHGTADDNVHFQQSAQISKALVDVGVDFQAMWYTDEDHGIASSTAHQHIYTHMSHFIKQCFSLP

Maximum absorption wavelength [1]	Maximum fluorescence wavelength [1]	pKcycl [1]	Molar extinction coefficient at pH 7.4 [1]	HPLC analysis after reaction with DPP-IV (DPP-IV; FIG. 2)	Fluorescence quantum yield [1]	Compound	Structure form under neutral conditions ([1]; neutral conditions)	Change in absorption and fluorescence spectrum on addition of DPP-IV (DPP-IV; compound concentration 3.5 μM, FIG. 1)	Fluorescence intensity in live cells with DPP-IV inhibitor added ([2]; probe 5 μM + 100 μM DPP-IV inhibitor, 60 minutes)	Fluorescence intensity in live cells over time ([2]; probe 10 μM, observed 60 minutes, six cell lines)	Fluorescence intensity in tumor areas with DPP-IV inhibitor [3]
496 nm	527 nm	5.0	300 M^−1cm^−1	hydrolyzed and cleaved by DPP-IV		NCC(=O)N1CCC[C@H]1C(=O)Nc1ccc2c(c1)Oc1cc(N)ccc1C21OCc2ccccc21 (stereo partly drawn) [Compound 1]	present mainly in a colorless, non-fluorescent, closed-ring structure	increase in the absorbance and fluorescence intensity	fluorescence intensity was lower with the probe with inhibitor added	increase in fluorescence intensity was seen over time in all of the cells	
						Nc1ccc2c(c1)Oc1cc(NC(=O)[C@@H]3CCCN3C(=O)[C@@H](N)CCC(=O)O)ccc1C21OCc2ccccc21 (stereo partly drawn) [Compound 2]					increase in fluorescence intensity was not seen in tumor areas
501 nm	524 nm	8.1	57,000 M^−1cm^−1		0.81	hydroxymethyl rhodamine green [HMRG, reference compound]					
